# Results: patent publication US5723319A, “Cultured cell line that inducibly expresses the hepatitis B virus genome, and uses thereof for screening antiviral substances” (Avid Therapeutics, Inc., priority 1995, dated 1998)
# Where two headings read alike, the source gives them in different places.
# Assays:
# HBV (2.2.15 cells) = assay: Inhibition of release of HBV DNA into the extracellular environment, 2.2.15 cells (dot blot); type: cell-based, hepatitis B virus
# Excerpt: The current state of, the art for the detection of HBV in tissue culture is the HepG2 or 2.2.15 cell line assay (Korba & Milman, Antiviral Research 15: 217-228 1991). This assay uses HepG2 cells (a human hepatoblastoma cell line) stably transfected with DNA from a clone containing two tandemly arranged copies of the HBV genome. […] The 2.2.15 cell line produces HBV at levels sufficient for measurement by conventional detection methods (Aoki-Sef et al., J. Infect. Dis. 164: 843-851 1988; Sells et al., Proc. Natl. Acad. Sci. USA 84: 4641-4644 1988).
# Cells were seeded in 24 well plates at 4×10^5 cells/well and were grown to 100% confluency (approximately 3 days). At this time (day 0), cells were washed 3 times with PBS and 0.5 ml of medium containing various concentrations of known HBV inhibitors (ddC, 3TC and CDG). For each compound, four different concentrations and a negative control were tested, in the presence or in the absence of tetracycline. Typically, the medium was replaced 24 hours prior to collection with samples being collected four, eight, and twelve days after induction. Media were clarified by centrifugation and stored at -70° C. for further analysis. The procedure for susceptibility testing in a 96-well format was essentially the same as for the 24 well plate format except that cells were seeded in 96 well plates at 5×10^4 cells/well, 5 concentrations of drug were tested, and the volume of medium used was 100 μl. In addition, samples were removed from the wells for HBV DNA determination either with and without medium changes 24 hours prior to collection.
# The samples were evaluated to determine the effective concentration of the inhibitors that inhibited the release of HBV DNA by 50%. This value is referred to as the EC50 for the compound.
# HBV (Hep AD38 cells) = assay: Inhibition of release of HBV DNA into the extracellular environment, Hep AD38 cells (dot blot); type: cell-based, human hepatitis B virus
# Procedure: Samples were analyzed by dot blot hybridization to detect the presence HBV DNA in the cell culture supernatants (Korba and Milman, 1991, supra). Supernatants were mixed with an equal volume of denaturation solution (1M NaOH/10× SSC) and incubated for 20 minutes at room temperature. The denatured supernatant mixture was blotted on a nylon membrane (Amersham, Arlington Heights, Ill.) using a dot blot apparatus (Schleicher and Schuell, Keene, N.H.). Samples were neutralized by washing the membrane with 0.5 ml of 1M Tris, pH 7.2/2M NaCl followed by 0.5 ml of 20× SSC. Filters were then rinsed in 2× SSC, subjected to UV light crosslinking (Stratalinker), and prehybridized in 5× SSC, 5× Denhardt's Reagent, 20 mM NaPO4, pH 6.5, 50% formamide, 1% SDS, and 250 mg/L salmon sperm DNA for 1 hour at 42° C.
# A 2.8 Kb fragment corresponding to the HBV sequences of pCMAYW was generated by PCR amplification, and served as a template for the synthesis of [α-^32 P]dCTP labelled hybridization probes by random priming according to the vendor's specifications (Megaprime DNA Labelling System, Amersham). Blots were hybridized with the radioactively labelled probe for sixteen hours at 42° C. The filters were then washed twice in 2× SSC/0.1% SDS at 25° C. for 20 minutes each and twice in 0.2× SSC/0.1% SDS at 65° C. for 20 minutes each. Radioactivity for individual samples was quantitated with a Fuji MacBAS 1000 Phosphorimager.
# Cells were seeded in 24 well plates at 4×10^5 cells/well and were grown to 100% confluency (approximately 3 days). At this time (day 0), cells were washed 3 times with PBS and 0.5 ml of medium containing various concentrations of known HBV inhibitors (ddC, 3TC and CDG). For each compound, four different concentrations and a negative control were tested, in the presence or in the absence of tetracycline. Typically, the medium was replaced 24 hours prior to collection with samples being collected four, eight, and twelve days after induction. […]
# The samples were evaluated to determine the effective concentration of the inhibitors that inhibited the release of HBV DNA by 50%. […]
# [1] = system: HBV Dane particles (2.2.15 cells); assay: Induction of HBV Dane particles, 2.2.15 cells +/- tetracycline; type: cell-based, hepatitis B virus
# Procedure: (§1) For each cell line, two 60 mm plates were seeded with 3×10^6 cells. When the cells reached full confluency, the medium was changed and tetracycline was removed from the medium of one the plates. […] The medium was adjusted to 10% glycerol (by volume) and incubated one hour at 4° C. Dane particles were pelleted by […] centrifugation and resuspended in PBS. The viral capsid was disrupted with 1% NP-40 (Sigma Chemical Co., St Louis, Mo.) and the capsid proteins were digested with proteinase K (50 μg/ml). The viral DNA was analyzed by dot blot hybridization using a radioactively labeled probe specific for HBV DNA.
# [2] = system: HBV DNA intermediates (Hep AD38 cells); assay: Southern blot of HBV DNA replicative intermediates (cccDNA, replicative intermediates, core DNA), Hep AD38 cells; type: cell-based, human hepatitis B virus; conditions: Hep AD38, presence of tetracycline
# Procedure: For each of the Hep AD38, HepG2 and 2.2.15 cell lines, two 60 mm plates were seeded with 3×10^6 cells and allowed to grow as described above. When the cells became confluent, the medium was changed and tetracycline was removed from the medium on one of the plates. After a six day induction period, the medium again was removed and the cells were washed with PBS. Cells were then incubated at 37° C. for 10 minutes with 1 ml lysis buffer (0.5% SDS, 10 mM Tris-HCl, pH 7.5, 10 mM EDTA, 0.15M NaCl). The cell solutions were transferred to 1.5 ml Eppendorf tubes, adjusted to 0.5 M KCl, and incubated on ice for 15 minutes. The lysates were then clarified by high-speed centrifugation for 15 minutes at 4° C., and the supernatants were collected. DNA was isolated from the supernatants by phenol extraction followed by cold ethanol precipitation. Pelleted DNA was resuspended in 40 μl TE buffer.
# For each cell line, two 60 mm plates were seeded with 3×10^6 cells. When the cells reached full confluency, the medium was changed and tetracycline was removed from the medium of one of the plates. After a 7 day induction period, the medium was removed and cells were washed with PBS. Cells were lysed by the addition of 0.6 ml of transfection lysis buffer (50 mM Tris, pH 8.0, 1 mM EDTA, 1% NP40) to each plate. The mixture was pipetted thoroughly to ensure complete cell lysis. […]
# [3] = system: HBV Dane particles (Hep AD38 cells); assay: Induction of HBV Dane particles, Hep AD38 cells +/- tetracycline; type: cell-based, human hepatitis B virus
# Procedure: as §1
# [4] = system: HBV Dane particles (HepG2 cells); assay: Induction of HBV Dane particles, HepG2 cells +/- tetracycline; type: cell-based, hepatitis B virus
# Procedure: as §1
smiles,measurement,setting,value
Nc1nc2c(ncn2C2CC(O)C(CO)C2)c(=O)[nH]1 (stereo not shown) [CDG],EC50,HBV (2.2.15 cells),19 nM
same,EC50,HBV (Hep AD38 cells),11 nM
CN(C)C1C(=O)C(C(N)=O)=C(O)C2(O)C(=O)C3=C(O)c4c(O)cccc4C(C)(O)C3CC12 (stereo not shown) [tetracycline],HBV DNA released (Dane particles),"[1]; 2.2.15, +Tet, Day 7",1.8 × 10^4 CPM/well
same,HBV DNA released (Dane particles),"[1]; 2.2.15, +Tet., Day 4",4 × 10^3 CPM/well
same,response to the presence or absence of tetracycline with regard to release of HBV DNA into the medium,"[1]; 2.2.15, presence or absence of tetracycline",no response
same,HBV DNA intermediates made,[2],not made
same,production of HBV Dane particles,"[3]; Hep AD38, 0.3 μg/ml of tetracycline",completely inhibits
same,HBV DNA released (Dane particles),"[3]; Hep AD38, +Tet, Day 7",0 CPM/well
same,HBV DNA released (Dane particles),"[3]; Hep AD38, +Tet., Day 4",0 CPM/well
same,release of HBV DNA into the extracellular environment,"[3]; Hep AD38, grown in the presence of tetracycline",do not release HBV DNA
same,HBV DNA released (Dane particles),"[4]; HepG2, +Tet, Day 7",0 CPM/well
same,HBV DNA released (Dane particles),"[4]; HepG2, +Tet., Day 4",0 CPM/well
Nc1ccn([C@H]2CC[C@@H](CO)O2)c(=O)n1 [ddC],EC50,HBV (2.2.15 cells); Hepatitis B virus,6000 nM
same,EC50,"HBV (Hep AD38 cells); Hepatitis B virus, HePAD38",8000 nM
Nc1ccn([C@@H]2CS[C@H](CO)O2)c(=O)n1 [3TC],EC50,HBV (2.2.15 cells); Hepatitis B virus,50 nM
same,EC50,"HBV (Hep AD38 cells); Hepatitis B virus, HePAD38",20 nM
